Where a SMILES comes first, the peptide text is derived from it. Bridges are numbered along the chain shown (N, C = ends). [ ]: non-standard residue; d: D form. The star is where a group is joined. ξ: configuration not given here. X1 = CC(C)(C)[Si](F)(c1ccc(C[N+](C)(C)CC(=O)*)cc1)C(C)(C)C; DO3AM = NC(=O)CN1CCN(CC(N)=O)CCN(CC(=O)*)CCN(CC(N)=O)CC1; ξW = NC(Cc1c[nH]c2ccccc12)C(=O)O; dOrn = NCCC[C@@H](N)C(=O)O; ξF = NC(Cc1ccccc1)C(=O)O; ξT = CC(O)C(N)C(=O)O; ξDap = NCC(N)C(=O)O; ξC = NC(CS)C(=O)O
target: T1, SST2 (Homo sapiens, UniProt P30874); assay: Determination of IC50: competitive binding against [125I]TOC on SST2-transfected CHO cells; conditions: [125I]TOC reference radioligand, 60 min room temperature
T1 construct: expressed in transfected cells; host or cells: CHO (Chinese hamster ovary) cells
T1 sequence (P30874 whole entry, species assumed): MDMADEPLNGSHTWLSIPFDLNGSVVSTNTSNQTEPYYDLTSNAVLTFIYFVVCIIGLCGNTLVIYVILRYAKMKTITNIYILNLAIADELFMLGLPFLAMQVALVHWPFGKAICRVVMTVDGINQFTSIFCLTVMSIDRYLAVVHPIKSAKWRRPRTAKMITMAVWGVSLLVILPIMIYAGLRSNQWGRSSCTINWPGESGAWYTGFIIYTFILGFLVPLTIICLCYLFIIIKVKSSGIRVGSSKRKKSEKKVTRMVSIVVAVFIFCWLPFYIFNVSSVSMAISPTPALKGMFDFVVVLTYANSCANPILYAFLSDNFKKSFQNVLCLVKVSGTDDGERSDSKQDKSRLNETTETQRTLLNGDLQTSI
Description: The SST2-transfected CHO cells were cultivated in Dulbecco's Modified Eagle Medium/Nutrient Mixture F-12 (DMEM/F-12) with Glutamax-I (1:1) (Gibco), supplemented with 10% fetal calf serum (FCS) and maintained at 37° C. in a humidified 5% CO2 atmosphere. […] After removal of the culture medium, the cells were treated once with 300 μL of HBSS-B (Hank's balanced salt solution, Biochrom, Berlin, Germany, with addition of 1% bovine serum albumin (BSA)) and left with 200 μL HBSS-B. Next, 25 μL per well of solutions, containing either HBSS-B (control) or the respective ligand in increasing concentration (10^−10-10^−4 M in HBSS-B, were added with subsequent addition of 25 μL of
[^125I]TOC ([^125I]Tyr^3-Octreotide) (1.0 nM) in HBSS-B. Each concentration is investigated in triplicate. After 60 min incubation at room temperature, the experiment was terminated by removal of the assay medium and consecutive rinsing with 300 μL of cold PBS. The media of both steps were combined in one fraction and represent the amount of unbound radioligand.
Afterwards, the cells were lysed with 300 μL of 1 M NaOH and united with the 300 μL 1 M NaOH of the following wash step. Quantification of bound and unbound radioligand was accomplished in a γ-counter.

Structure (SMILES) | IC50
CC(O)C(NC(=O)C1CSSCC(NC(=O)C(Cc2ccccc2)NC(=O)CNC(=O)CNC(=O)CNC(=O)[C@@H](CCCN)NC(=O)[C@@H](CCCN)NC(=O)C(CNC(=O)CN2CCN(CC(N)=O)CCN(CC(N)=O)CCN(CC(N)=O)CC2)NC(=O)C[N+](C)(C)Cc2ccc([Si](F)(C(C)(C)C)C(C)(C)C)cc2)C(=O)N[C@@H](Cc2ccc(O)cc2)C(=O)NC(Cc2c[nH]c3ccccc23)C(=O)N[C@@H](CCCCN)C(=O)N[C@@H]([C@@H](C)O)C(=O)N1)C(=O)O (stereo partly drawn) [[Pb]61] (X1-[ξDap](DO3AM)[dOrn][dOrn]GGG[ξF][ξC]Y[ξW]KT[ξC][ξT]-OH; disulfide 8-13) | 7.96 ± 0.28 nM
C[C@@H](O)[C@H](NC(=O)C1CSSCC(NC(=O)C(Cc2ccccc2)NC(=O)CNC(=O)CNC(=O)CNC(=O)C(CC(=O)O)NC(=O)[C@@H](CC(=O)O)NC(=O)C(CCC(=O)O)NC(=O)[C@@H](CNC(=O)C[N+](C)(C)Cc2ccc([Si](F)(C(C)(C)C)C(C)(C)C)cc2)NC(=O)CN2CCN(CC(=O)O)CCN(CC(=O)O)CCN(CC(=O)O)CC2)C(=O)N[C@@H](Cc2ccc(O)cc2)C(=O)NC(Cc2c[nH]c3ccccc23)C(=O)N[C@@H](CCCCN)C(=O)N[C@@H]([C@@H](C)O)C(=O)N1)C(=O)O (stereo partly drawn) (natGa complex, metal not drawn) [[Ga]47] | 7.58 ± 0.58 nM
C[C@@H](O)[C@H](NC(=O)C1CSSCC(NC(=O)C(Cc2ccccc2)NC(=O)CNC(=O)CNC(=O)CNC(=O)C(CC(=O)O)NC(=O)[C@@H](CC(=O)O)NC(=O)C(CCC(=O)O)NC(=O)[C@@H](CNC(=O)C[N+](C)(C)Cc2ccc([Si](F)(C(C)(C)C)C(C)(C)C)cc2)NC(=O)CN2CCN(CC(=O)O)CCN(CC(=O)O)CCN(CC(=O)O)CC2)C(=O)N[C@@H](Cc2ccc(O)cc2)C(=O)NC(Cc2c[nH]c3ccccc23)C(=O)N[C@@H](CCCCN)C(=O)N[C@@H]([C@@H](C)O)C(=O)N1)C(=O)O (stereo partly drawn) (natLu complex, metal not drawn) [[Lu]47] | 5.13 ± 0.51 nM
C[C@@H](O)[C@H](NC(=O)C1CSSCC(NC(=O)C(Cc2ccccc2)NC(=O)CNC(=O)CNC(=O)CNC(=O)C(CC(=O)O)NC(=O)[C@@H](CC(=O)O)NC(=O)C(CNC(=O)CN2CCN(CC(=O)O)CCN(CC(=O)O)CCN(CC(=O)O)CC2)NC(=O)C[N+](C)(C)Cc2ccc([Si](F)(C(C)(C)C)C(C)(C)C)cc2)C(=O)N[C@@H](Cc2ccc(O)cc2)C(=O)NC(Cc2c[nH]c3ccccc23)C(=O)N[C@@H](CCCCN)C(=O)N[C@@H]([C@@H](C)O)C(=O)N1)C(=O)O (stereo partly drawn) (natLu complex, metal not drawn) [[Lu]50] | 3.72 ± 0.61 nM
C[C@@H](O)[C@H](NC(=O)C1CSSCC(NC(=O)C(Cc2ccccc2)NC(=O)CNC(=O)CNC(=O)[C@@H](CC(=O)O)NC(=O)C(CC(=O)O)NC(=O)[C@@H](CNC(=O)CC[C@H](C(=O)O)N2CCN(CC(=O)O)CCN(CC(=O)O)CCN(CC(=O)O)CC2)NC(=O)C(CN)NC(=O)c2ccc([Si](F)(C(C)(C)C)C(C)(C)C)cc2)C(=O)N[C@@H](Cc2ccc(O)cc2)C(=O)NC(Cc2c[nH]c3ccccc23)C(=O)N[C@@H](CCCCN)C(=O)N[C@@H]([C@@H](C)O)C(=O)N1)C(=O)O (stereo partly drawn) (natLu complex, metal not drawn) [[Lu]20] | 11 ± 5.69 nM
C[C@@H](O)[C@H](NC(=O)C1CSSCC(NC(=O)C(Cc2ccccc2)NC(=O)CNC(=O)CNC(=O)[C@@H](CC(=O)O)NC(=O)C(CC(=O)O)NC(=O)[C@@H](CNC(=O)CN2CCN(CC(=O)O)CCN(CC(=O)O)CCN(CC(=O)O)CC2)NC(=O)C[N+](C)(C)Cc2ccc([Si](F)(C(C)(C)C)C(C)(C)C)cc2)C(=O)N[C@@H](Cc2ccc(O)cc2)C(=O)NC(Cc2c[nH]c3ccccc23)C(=O)N[C@@H](CCCCN)C(=O)N[C@@H]([C@@H](C)O)C(=O)N1)C(=O)O (stereo partly drawn) (natLu complex, metal not drawn) [[Lu]24] | 5.5 ± 0.76 nM
C[C@@H](O)[C@H](NC(=O)C1CSSCC(NC(=O)C(Cc2ccccc2)NC(=O)CNC(=O)CNC(=O)CNC(=O)C(CC(=O)O)NC(=O)[C@@H](CC(=O)O)NC(=O)C(CNC(=O)CN2CCN(CC(=O)O)CCN(CC(=O)O)CCN(CC(=O)O)CC2)NC(=O)[C@@H](CN)NC(=O)C[N+](C)(C)Cc2ccc([Si](F)(C(C)(C)C)C(C)(C)C)cc2)C(=O)N[C@@H](Cc2ccc(O)cc2)C(=O)NC(Cc2c[nH]c3ccccc23)C(=O)N[C@@H](CCCCN)C(=O)N[C@@H]([C@@H](C)O)C(=O)N1)C(=O)O (stereo partly drawn) (natGa complex, metal not drawn) [[Ga]51] | 3.56 ± 0.25 nM
C[C@@H](O)[C@H](NC(=O)C1CSSCC(NC(=O)C(Cc2ccccc2)NC(=O)[C@@H](CC(N)=O)NC(=O)C(CC(N)=O)NC(=O)[C@@H](CC(=O)O)NC(=O)C(CC(=O)O)NC(=O)[C@@H](CNC(=O)CN2CCN(CC(=O)O)CCN(CC(=O)O)CCN(CC(=O)O)CC2)NC(=O)C[N+](C)(C)Cc2ccc([Si](F)(C(C)(C)C)C(C)(C)C)cc2)C(=O)N[C@@H](Cc2ccc(O)cc2)C(=O)NC(Cc2c[nH]c3ccccc23)C(=O)N[C@@H](CCCCN)C(=O)N[C@@H]([C@@H](C)O)C(=O)N1)C(=O)O (stereo partly drawn) (natLu complex, metal not drawn) [[Lu]48] | 5.5 ± 1.47 nM
C[C@@H](O)[C@H](NC(=O)C1CSSCC(NC(=O)C(Cc2ccccc2)NC(=O)CNC(=O)CNC(=O)CNC(=O)C(CC(=O)O)NC(=O)[C@@H](CC(=O)O)NC(=O)C(CNC(=O)CN2CCN(CC(=O)O)CCN(CC(=O)O)CCN(CC(=O)O)CC2)NC(=O)[C@@H](CN)NC(=O)CNC(=O)CNC(=O)C[N+](C)(C)Cc2ccc([Si](F)(C(C)(C)C)C(C)(C)C)cc2)C(=O)N[C@@H](Cc2ccc(O)cc2)C(=O)NC(Cc2c[nH]c3ccccc23)C(=O)N[C@@H](CCCCN)C(=O)N[C@@H]([C@@H](C)O)C(=O)N1)C(=O)O (stereo partly drawn) (natLu complex, metal not drawn) [[Lu]53] | 3.36 ± 0.27 nM
C[C@@H](O)[C@H](NC(=O)C1CSSCC(NC(=O)C(Cc2ccccc2)NC(=O)CNC(=O)CNC(=O)CNC(=O)C(CC(=O)O)NC(=O)[C@@H](CC(=O)O)NC(=O)C(CNC(=O)CN2CCN(CC(=O)O)CCN(CC(=O)O)CCN(CC(=O)O)CC2)NC(=O)[C@@H](CN)NC(=O)CNC(=O)CNC(=O)C[N+](C)(C)Cc2ccc([Si](F)(C(C)(C)C)C(C)(C)C)cc2)C(=O)N[C@@H](Cc2ccc(O)cc2)C(=O)NC(Cc2c[nH]c3ccccc23)C(=O)N[C@@H](CCCCN)C(=O)N[C@@H]([C@@H](C)O)C(=O)N1)C(=O)O (stereo partly drawn) (natGa complex, metal not drawn) [[Ga]53] | 3.4 ± 0.18 nM
C[C@@H](O)[C@H](NC(=O)C1CSSCC(NC(=O)C(Cc2ccccc2)NC(=O)CNC(=O)CNC(=O)CNC(=O)C(CC(=O)O)NC(=O)[C@@H](CC(=O)O)NC(=O)C(CNC(=O)CN2CCN(CC(=O)O)CCN(CC(=O)O)CCN(CC(=O)O)CC2)NC(=O)[C@@H](CN)NC(=O)C[N+](C)(C)Cc2ccc([Si](F)(C(C)(C)C)C(C)(C)C)cc2)C(=O)N[C@@H](Cc2ccc(O)cc2)C(=O)NC(Cc2c[nH]c3ccccc23)C(=O)N[C@@H](CCCCN)C(=O)N[C@@H]([C@@H](C)O)C(=O)N1)C(=O)O (stereo partly drawn) (natLu complex, metal not drawn) [[Lu]51] | 3.09 ± 0.16 nM
C[C@@H](O)[C@H](NC(=O)C1CSSCC(NC(=O)C(Cc2ccccc2)NC(=O)CNC(=O)CNC(=O)[C@@H](CC(=O)O)NC(=O)C(CC(=O)O)NC(=O)[C@@H](CNC(=O)CN2CCN(CC(=O)O)CCN(CC(=O)O)CCN(CC(=O)O)CC2)NC(=O)C(CN)NC(=O)c2ccc([Si](F)(C(C)(C)C)C(C)(C)C)cc2)C(=O)N[C@@H](Cc2ccc(O)cc2)C(=O)NC(Cc2c[nH]c3ccccc23)C(=O)N[C@@H](CCCCN)C(=O)N[C@@H]([C@@H](C)O)C(=O)N1)C(=O)O (stereo partly drawn) (natLu complex, metal not drawn) [[Lu]19] | 13.3 ± 1.97 nM

— patent US20240317780A1, “RADIOPHARMACEUTICAL SOMATOSTATIN RECEPTOR LIGANDS AND PRECURSORS THEREOF” (Technische Universität München, priority 2021, published 2024)
